Measurements published in PubChem BioAssay (NCI).
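GI50 is the concentration that inhibits growth by half. Definition used: TGI = concentration required for complete inhibition of growth.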

Tests used:
Test in all cases: growth of human tumour cells (NCI), 384-well format
[1] = tested on: K-562 leukemia
[2] = tested on: A498 renal
[3] = tested on: OVCAR-3 ovarian
[4] = tested on: SNB-19 CNS
[5] = tested on: SF-539 CNS
[6] = tested on: BT-549 breast
[7] = tested on: MDA-MB-435 melanoma
[8] = tested on: NCI-H522 lung
[9] = tested on: SR leukemia
[10] = tested on: HT29 colon
[11] = tested on: NCI-H23 lung
[12] = tested on: PC-3 prostate
[13] = tested on: OVCAR-5 ovarian
[14] = tested on: SN12C renal
[15] = tested on: HCT-15 colon
[16] = tested on: SW-620 colon
[17] = tested on: NCI-H226 lung
[18] = tested on: RXF 393 renal
[19] = tested on: SK-OV-3 ovarian
[20] = tested on: NCI-H322M lung
[21] = tested on: HCT-116 colon
[22] = tested on: HS 578T breast
[23] = tested on: 786-0 renal
[24] = tested on: MDA-MB-468 breast
[25] = tested on: SK-MEL-2 melanoma
[26] = tested on: UO-31 renal
[27] = tested on: OVCAR-4 ovarian
[28] = tested on: NCI-H460 NSCLC
[29] = tested on: MOLT-4 leukemia
[30] = tested on: CCRF-CEM leukemia
[31] = tested on: SNB-75 CNS
[32] = tested on: M14 melanoma
[33] = tested on: RPMI-8226 leukemia
[34] = tested on: TK-10 renal
[35] = tested on: LOX IMVI melanoma
[36] = tested on: UACC-62 melanoma
[37] = tested on: ACHN renal
[38] = tested on: SF-295 CNS
[39] = tested on: NCI/ADR-RES ovarian
[40] = tested on: IGROV1 ovarian
[41] = tested on: OVCAR-8 ovarian
[42] = tested on: A549 NSCLC
[43] = tested on: T-47D breast
[44] = tested on: SK-MEL-5 melanoma
[45] = tested on: U251 glioblastoma
[46] = tested on: EKVX NSCLC
[47] = tested on: HOP-92 NSCLC
[48] = tested on: SK-MEL-28 melanoma

NC(=O)c1cccc2cn(-c3ccc([C@@H]4CCCNC4)cc3)nc12 showed a GI50 [1] of 10.1 µM, a TGI [1] of 21.8 µM and a GI50 [2] of 16.7 µM. It also gave a TGI [2] of 30.5 µM, a GI50 [3] of 18.3 µM and a TGI [3] of 33 µM. It also gave a GI50 [4] of 18.3 µM, a TGI [4] of over 54.2 µM and a GI50 [5] of 5.66 µM. It also gave a TGI [5] of 18.2 µM, a GI50 [6] of 9.95 µM and a TGI [6] of 22 µM. It also gave a GI50 [7] of 17.5 µM, a TGI [7] of 33.6 µM and a GI50 [8] of 15.1 µM. For the same compound, the TGI [8] was 29 µM, the GI50 [9] was 0.805 µM and the TGI [9] was 2.18 µM. It also gave a GI50 [10] of 13.4 µM, a TGI [10] of 26.6 µM and a GI50 [11] of 5.93 µM. It also gave a TGI [11] of 19.6 µM, a GI50 [12] of 15.4 µM and a TGI [12] of 46.6 µM. For the same compound, the GI50 [13] was 24 µM, the TGI [13] was 59.6 µM and the TGI [14] was over 43.4 µM. It also gave a GI50 [15] of 11.9 µM, a TGI [15] of 24.8 µM and a GI50 [16] of 6.05 µM. It also gave a TGI [16] of 22.4 µM, a GI50 [17] of 12.5 µM and a TGI [17] of 25.2 µM. For the same compound, the GI50 [18] was 16.7 µM, the TGI [18] was 30.5 µM and the GI50 [19] was 11.7 µM. The TGI [19] was 28.8 µM, the GI50 [20] was 18.2 µM and the TGI [20] was 34.1 µM. For the same compound, the GI50 [21] was 4.73 µM, the TGI [21] was 18.3 µM and the GI50 [22] was 10.1 µM. It also gave a TGI [22] of 21.9 µM, a GI50 [23] of 12.7 µM and a TGI [23] of 26.3 µM. It also gave a GI50 [24] of 1.49 µM, a TGI [24] of 4.17 µM and a GI50 [25] of 23.2 µM. For the same compound, the TGI [25] was 37.9 µM, the GI50 [26] was 14 µM and the TGI [26] was 27.7 µM. For the same compound, the GI50 [27] was 25.2 µM, the TGI [27] was 44.5 µM and the GI50 [28] was 3.06 µM. The TGI [28] was 13.4 µM, the GI50 [29] was 1.49 µM and the TGI [29] was 2.83 µM. For the same compound, the GI50 [30] was 1.83 µM, the TGI [30] was 3.71 µM and the GI50 [31] was 4.68 µM. The TGI [31] was 16.5 µM, the GI50 [32] was 4.68 µM and the TGI [32] was 15.8 µM. For the same compound, the GI50 [33] was 9.26 µM, the TGI [33] was 23.1 µM and the GI50 [34] was 16.2 µM. It also gave a TGI [34] of 34 µM, a GI50 [35] of 7.47 µM and a TGI [35] of 19.9 µM. The GI50 [36] was 12 µM, the TGI [36] was 24.5 µM and the GI50 [37] was 9.72 µM. For the same compound, the TGI [37] was 21.7 µM, the GI50 [38] was 2.64 µM and the TGI [38] was 7.79 µM. For the same compound, the GI50 [39] was 13.5 µM, the TGI [39] was 29.6 µM and the GI50 [40] was 12.9 µM. For the same compound, the TGI [40] was 27.2 µM, the GI50 [41] was 7.24 µM and the TGI [41] was 20.6 µM. The GI50 [42] was 11.8 µM, the TGI [42] was 24.5 µM and the GI50 [43] was 12.6 µM. The TGI [43] was 26.2 µM, the GI50 [44] was 7.81 µM and the TGI [44] was 19.4 µM. For the same compound, the GI50 [45] was 12.2 µM, the TGI [45] was 25.1 µM and the GI50 [46] was 17.7 µM. For the same compound, the TGI [46] was 34.7 µM, the GI50 [47] was 14.3 µM and the TGI [47] was 28.3 µM. The GI50 [48] was 16.2 µM and the TGI [48] was 29.9 µM.
